# Like-named read-outs stand apart in the source and are kept apart here.
# What was measured:
# [1] = target: T1, BCRP (Homo sapiens, UniProt Q9UNQ0); details: Caco-2
# T1 sequence (Q9UNQ0 1-655): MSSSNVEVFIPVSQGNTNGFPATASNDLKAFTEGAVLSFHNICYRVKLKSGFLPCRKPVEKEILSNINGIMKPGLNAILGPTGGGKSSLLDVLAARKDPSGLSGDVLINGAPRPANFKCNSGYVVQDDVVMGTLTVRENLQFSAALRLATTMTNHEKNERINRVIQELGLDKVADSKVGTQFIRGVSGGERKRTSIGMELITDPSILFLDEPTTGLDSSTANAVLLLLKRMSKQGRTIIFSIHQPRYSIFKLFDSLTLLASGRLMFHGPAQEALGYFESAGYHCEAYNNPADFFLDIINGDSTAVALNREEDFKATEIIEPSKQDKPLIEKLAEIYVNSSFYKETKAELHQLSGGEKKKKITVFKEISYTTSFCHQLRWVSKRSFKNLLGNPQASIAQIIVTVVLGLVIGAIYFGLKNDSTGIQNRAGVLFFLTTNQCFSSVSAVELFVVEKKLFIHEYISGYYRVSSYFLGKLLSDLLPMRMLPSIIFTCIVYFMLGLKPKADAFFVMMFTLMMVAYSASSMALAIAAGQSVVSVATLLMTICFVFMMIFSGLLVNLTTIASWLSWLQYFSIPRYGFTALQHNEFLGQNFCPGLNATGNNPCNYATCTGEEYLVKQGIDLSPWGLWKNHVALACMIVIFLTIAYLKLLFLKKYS
# [2] = target: T2, P-gp (Homo sapiens, UniProt P08183); experiment: Study on transporter substrates in Caco-2 cell model; assay type: in vitro ADME; details: Caco-2
# T2 construct: endogenous in cells; host or cells: Caco-2
# Protocol: The resistance of each well was recorded. […] 2. […] The plate was vortexed for 10 min. The samples were centrifuged. […] HBSS was added to the basolateral compartment. […] 3. Data Analysis
# Data were calculated using Microsoft Excel.
# [3] = target: T1, BCRP; experiment: as above; details: Caco-2; for efflux ratio at 2 h / recovery at 2 h: human; for efflux ratio at 2 h: Caco-2, Efflux ratio
# [4] = test system: MDA-MB-231 cells; experiment: Inhibition of in vitro proliferation of tumor cells by compounds (CTG, 6 days); assay type: cell-based; details: small molecule fragments, 6 days of culture, CTG, read-out: MDA-MB-231 IC50
# Protocol: To test the inhibitory activity of the pharmaceutical compounds on the in vitro proliferation of NCI-N87, JIMT-1 and MBA-MB-231 tumor cells. The cells were treated with compounds at different concentrations in vitro, and after 6 days of culture, the proliferation of cells was detected using CTG (CellTiter-Glo® Luminescent Cell Viability Assay, Promega, Cat. No. G7558) reagents, and the in vitro activity of the compounds was evaluated according to the IC50 value. • 1. Culturing of cells: NCI-N87/JIMT-1/MBA-MB-231 cells were cultured in RPMI-1640 medium containing 10% FBS. • 2. Preparation of cells: NCI-N87/JIMT-1/MBA-MB-231 cells in logarithmic phase were taken, washed with PBS once, and digested with 2-3 mL of trypsin for 2-3 min. After the cells were digested completely, 10-15 mL of cell culture was added to elute the digested cells. The eluate was centrifuged at 1000 rpm for 5 min, and the supernatant was discarded. The resulting cells were resuspended in 10-20 mL of cell culture to obtain a single cell suspension. • 3. Cell plating: the NCI-N87/JIMT-1/MBA-MB-231 single cell suspension was mixed well and adjusted to a viable cell density of 6×10^4 cells/mL with cell culture. The cell suspension with the adjusted density was mixed well and added to a 96-well cell culture plate at 50 μL/well. The culture plate was incubated in an incubator for 18 h (37° C., 5% CO2). • 4. Preparation of compounds: the compounds were dissolved in DMSO to obtain stock solutions at an initial concentration of 10 mM. There were 8 concentrations in total for the small molecule compounds: 300 nM, 100 nM, 30 nM, 10 nM, 3 nM, 1 nM, 0.3 nM, and 0.1 nM. • 5. Sample adding: the prepared samples to be detected at different concentrations were added to the culture plate, and two duplicate wells were set for each sample. The culture plate was incubated in an incubator for 6 days (37° C., 5% CO2). • 6. Color developing: the 96-well cell culture plate was taken out, added with the CTG reagent at 50 μL/well, and incubated at room temperature for 10 min. • 7. Plate reading: the 96-well cell culture plate was taken out, placed in a microplate reader, and measured for the chemiluminescence using the microplate reader. Data analysis: data were processed and analyzed using Microsoft Excel and Graphpad Prism 5.
# [5] = Caco-2, Recovery rate (%) BL-AP, KO143 −
# [6] = Caco-2, with KO143 (concentration not stated), Recovery rate (%) AP-BL, KO143 +
# [7] = Caco-2, with KO143 (concentration not stated), Recovery rate (%) BL-AP, KO143 +
# [8] = Homo sapiens, MDA-MB-231, 144 h, Table 2 (untitled), Test Example 2.2
# [9] = Caco-2, Recovery rate (%) AP-BL, KO143 −
# T2 sequence (P08183 whole entry): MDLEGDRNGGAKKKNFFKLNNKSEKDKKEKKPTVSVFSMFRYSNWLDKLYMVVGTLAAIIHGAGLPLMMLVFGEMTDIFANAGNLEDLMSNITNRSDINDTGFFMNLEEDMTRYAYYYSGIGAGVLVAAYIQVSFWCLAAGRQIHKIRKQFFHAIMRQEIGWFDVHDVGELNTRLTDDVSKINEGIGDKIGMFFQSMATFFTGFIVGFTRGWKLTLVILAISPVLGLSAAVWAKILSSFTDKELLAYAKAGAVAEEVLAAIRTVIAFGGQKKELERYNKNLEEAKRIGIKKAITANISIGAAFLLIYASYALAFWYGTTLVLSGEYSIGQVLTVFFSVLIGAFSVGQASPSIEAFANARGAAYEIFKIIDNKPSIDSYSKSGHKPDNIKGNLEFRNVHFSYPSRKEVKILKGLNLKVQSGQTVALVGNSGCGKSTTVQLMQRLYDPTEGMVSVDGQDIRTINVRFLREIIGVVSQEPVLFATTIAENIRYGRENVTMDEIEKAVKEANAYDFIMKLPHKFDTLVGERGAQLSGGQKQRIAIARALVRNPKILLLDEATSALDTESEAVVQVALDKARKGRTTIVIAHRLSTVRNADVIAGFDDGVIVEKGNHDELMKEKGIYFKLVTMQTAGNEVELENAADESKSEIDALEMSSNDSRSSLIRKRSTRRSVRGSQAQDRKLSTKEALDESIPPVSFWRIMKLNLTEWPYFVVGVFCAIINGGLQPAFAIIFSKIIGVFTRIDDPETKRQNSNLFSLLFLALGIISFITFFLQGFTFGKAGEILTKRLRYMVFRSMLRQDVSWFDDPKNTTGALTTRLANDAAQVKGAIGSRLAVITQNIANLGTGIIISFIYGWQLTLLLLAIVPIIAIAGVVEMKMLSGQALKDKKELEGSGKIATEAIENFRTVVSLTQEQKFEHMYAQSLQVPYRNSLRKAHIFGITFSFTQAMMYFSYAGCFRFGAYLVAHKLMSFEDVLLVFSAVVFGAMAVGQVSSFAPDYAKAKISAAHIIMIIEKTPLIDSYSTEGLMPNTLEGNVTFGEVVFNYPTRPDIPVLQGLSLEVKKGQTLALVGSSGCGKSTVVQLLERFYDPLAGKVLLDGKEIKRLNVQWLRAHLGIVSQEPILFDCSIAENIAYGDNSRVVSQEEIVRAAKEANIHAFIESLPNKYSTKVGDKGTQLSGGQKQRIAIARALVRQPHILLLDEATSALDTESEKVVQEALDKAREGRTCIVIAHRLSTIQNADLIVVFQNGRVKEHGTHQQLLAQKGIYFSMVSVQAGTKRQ
Structure (SMILES),"Papp (A-B) (10^−6, cm/s) [1]","Papp (B-A) (10^−6, cm/s) [1]",P-gp substrate [2],Recovery rate (%) AP-BL ([3]; KO143 −),efflux ratio at 2 h ([3]; KO143 −),"recovery at 2 h [3, 5]","recovery at 2 h [3, 6]","recovery at 2 h [3, 7]","IC50 [4, 8]",Recovery rate (%) AP-BL ([3]; KO143 +),Recovery rate (%) BL-AP ([3]; KO143 +),Efflux ratio ([3]; KO143 −),Recovery rate (%) BL-AP ([3]; KO143 −),"IC50 ([4]; Table 2 (untitled), Test Example 2.2)","recovery at 2 h [3, 9]","IC50 ([4]; Homo sapiens, MDA-MB-231, 144 h, Table 3, Test Example 2.3)"
"CC[C@@]1(O)C(=O)OCc2c1cc1n(c2=O)Cc2c-1nc1cc(F)c(C)c3c1c2[C@@H](NC(=O)C1CCC(O)CC1)CC3 (single isomer, unassigned) [P-II-1]","0.20 10^−6, cm/s","5.52 10^−6, cm/s",neither transporter P-gp substrates nor transporter BCRP substrates,80.87%,28.7,77.5%,76.9%,76.5%,12.9 nM,–,–,–,–,–,–,–
"CC[C@@]1(O)C(=O)OCc2c1cc1n(c2=O)Cc2c-1nc1cc(F)c(C)c3c1c2[C@@H](NC(=O)C1CCC(O)CC1)CC3 (single isomer, unassigned) [P-II-2]","0.07 10^−6, cm/s","1.70 10^−6, cm/s",neither transporter P-gp substrates nor transporter BCRP substrates,59.32%,–,–,–,–,–,62.42%,62.86%,30.08,58.51%,19.3 nM,–,–
"CC[C@@]1(O)C(=O)OCc2c1cc1n(c2=O)Cc2c-1nc1cc(F)c(C)c3c1c2[C@@H](NC(=O)[C@H]1C[C@@H](O)C1)CC3 [P-II-3, (1s,3R)-N-((1S,9S)-9-ethyl-5-fluoro-9-hydroxy-4-methyl-10,13-dioxo-2,3,9,10,13,15-hexahydro-1H,12H-benzo[de]pyrano[3′,4′:6,7]indolizino[1,2-b]quinolin-1-yl)-3-hydroxycyclobutane-1-carboxamide]","0.20 10^−6, cm/s","5.52 10^−6, cm/s",neither transporter P-gp substrates nor transporter BCRP substrates,–,28.7,77.5%,76.9%,76.5%,9.4 nM,–,–,–,–,–,80.9%,–
"CC[C@@]1(O)C(=O)OCc2c1cc1n(c2=O)Cc2c-1nc1cc(F)c(C)c3c1c2[C@@H](NC(=O)[C@H]1C[C@H](O)C1)CC3 [P-II-4, (1r,3S)-N-((1S,9S)-9-ethyl-5-fluoro-9-hydroxy-4-methyl-10,13-dioxo-2,3,9,10,13,15-hexahydro-1H,12H-benzo[de]pyrano[3′,4′:6,7]indolizino[1,2-b]quinolin-1-yl)-3-hydroxycyclobutane-1-carboxamide]","0.06 10^−6, cm/s","1.65 10^−6, cm/s",neither transporter P-gp substrates nor transporter BCRP substrates,–,36.1,64%,65%,63%,7.6 nM,–,–,–,–,–,63.8%,–
"CC[C@@]1(O)C(=O)OCc2c1cc1n(c2=O)Cc2c-1nc1cc(F)c(C)c3c1c2[C@@H](NC(=O)C[C@@H](C)O)CC3 [P-III-20, (R)—N-((1S,9S)-9-ethyl-5-fluoro-9-hydroxy-4-methyl-10,13-dioxo-2,3,9,10,13,15-hexahydro-1H,12H-benzo[de]pyrano[3′,4′: 6,7]indolizino[1,2-b]quinolin-1-yl)-3-hydroxybutanamide]",–,–,–,–,–,–,–,–,–,–,–,–,–,–,–,6.65 nM

# Source: patent US11952384B2, “Anti-tumor compound and preparation method and use thereof” (DUALITY BIOLOGICS (SUZHOU) CO., LTD., priority 2020, dated 2024)
